Consider 4 molecules from publication PMC10241580, “Bioassay-Guided Isolation of Antiplasmodial Compounds from Hypericum lanceolatum Lam. (Hypericaceae) and Their Cytotoxicity and Molecular Docking” (BioMed Research International, 2023).

≈ marks a conversion by molar mass, not a printed value.

Series [1] in a line: In vitro cytotoxicity MTT assay on P388 cell line. The series is classed as cell-based. The settings on record: mouse, mean ± SD (n = 3). Here is the method: The in vitro study of the cytotoxicity potency of the isolated compounds was performed using the P388 (mouse leukaemia) cell line which was obtained from the American Type Culture Collection (ATCC) (Rockville, MD, USA). The cells were arranged in 96-well plates at a density of 10^4 cells per well containing […] of culture medium and then cultured for 24 h in the opti-MEM medium supplemented with 2 mM glutamine (Gibco, Grand Island, NY, USA), streptomycin (50 μg/mL), penicillin (50 U/mL), and 5% fetal calf serum (Gibco). After the cell cultures were maintained at 37°C in an atmosphere saturated with 5% CO2, the four tested compounds prepared at the concentration of 1 mg/mL by dissolving in the mixture DMSO/culture medium (1 : 9) were diluted in cell culture to reach the required concentrations (ranging from 1 to 100 μg/mL). The in vitro cytotoxic activity of the tested compounds was evaluated using the MTT assay for leukaemia cells.

A further series has as its system Plasmodium parasite. Further details: method as in doi:10.1016/j.sajb.2022.11.021. Particulars: in words; cited from earlier work.

By IC50 is commonly meant the concentration that gives 50% inhibition. Read a high IC50 as lower potency.

With `O=c1c2cc(O)c(O)cc2oc2cc(O)cc(O)c12` [Compound 2, norathyriol], the IC50 in series [1] (P388 leukaemia cells) worked out at 21.8 ± 0.3 µg/mL (≈ 83.8 µM).

Turning to `C=C(C)[C@@H]1CC[C@]2(C(=O)O)CC[C@]3(C)[C@H](CC[C@@H]4[C@@]5(C)CC[C@H](O)C(C)(C)[C@@H]5CC[C@]43C)[C@@H]12` [Compound 3, betulinic acid], inhibition in series [1] (P388 cells) was half-maximal at 6.8 ± 2.2 µg/mL (≈ 14.9 µM) (IC50).

Consider `C[C@H]1[C@H](C)CC[C@]2(C(=O)O)CC[C@]3(C)C(=CC[C@@H]4[C@@]5(C)CC[C@H](O)C(C)(C)[C@@H]5CC[C@]43C)[C@H]12` [Compound 4, ursolic acid], for which the IC50 in series [1] (P388 leukaemia cells) amounted to 2.5 ± 0.6 µg/mL (≈ 5.47 µM). Further, the Antiplasmodial potency entry in the series on Plasmodium parasite is “weak”.

`O=c1c2ccc(O)cc2oc2cccc(O)c12` [Compound 1, 1,6-dihydroxyxanthone] registered an IC50 in series [1] (P388 cells) of 17.6 ± 0.7 µg/mL (≈ 77.1 µM).
